Measured values from US20220195275A1, “Biocompatible Oil Herders and Methods of Use” (Texas A&M University, priority 2019, published 2022).
One block for each molecule: values may come before it.

Key:
[1] = Conductivity versus temperature / determination of Krafft point; format: physicochemical; settings: for Conductivity: SDS (0.1 mol/L) in water
Protocol: The hand-held conductivity/TDS meter CN 6/TDS 6 of Oakton instruments was used to measure the conductivity and the temperature of the sample.
Sodium dodecyl sulfate (Ionic surfactant): sodium dodecyl sulfate in deionized water solution (0.1 mol/l) was prepared in a 200 ml glass beaker. The solution was stored in refrigerator at 5° C. for 24 hours. The sodium dodecyl sulfate surfactant has crystallized below the 5° C. atmosphere. The glass beaker was taken out of the refrigerator and placed on a hot plate stirrer. The conductivity meter probe was immersed into the solution. The dual measuring mode of conductivity meter could measure both the conductivity and the temperature. The solution was slightly heated to remain 0.2° C./min increase. The measured conductivity and temperature data were drawn in FIGS. 2A-2B. […]
Krafft temperature and solubility behavior of the ionic surfactant SDS and the non-ionic surfactant modified konjac glucomannan were discussed in FIGS. 2A-2D. […] The conductivity measurement was proven to be able to identify the Krafft temperature. Krafft temperature is the minimum temperature for surfactant to form micelles. There is an abrupt large solubility increase above the Krafft temperature. Surfactant working temperature should be higher than Krafft temperature for surfactant functioning.
First, 200 ml of SDS in deionized water solution of 0.1 mol/L concentration was prepared in a 200 ml glass beaker. The solution was left in refrigerator at 5° C. for 24 hours. This process has brought about the crystallization of the surfactant. The glass beaker is taken out of the refrigerator and placed on a hot plate stirrer (CORNING PC-420). The probe stick of the conductivity meter (TDS meter CON 6/TDS 6) is inserted into the solution. The dual measuring mode of conductivity meter can measure both the conductivity and the temperature. The conductivity of the solution is recorded from 12° C. and measured till 28° C. The solution is slightly heated to attain a steady temperature rise. The conductivity is measured at regular intervals of temperature (0.2° C. raise) and noted down. The whole process took about 2.5 hours. […]

[2] = Herding efficiency of PEG derivatives and commercial surfactants (slick thickness ratio vs herder concentration); settings: 25° C.
Protocol: Herding surfactant is essentially a surface-active agent. To preliminarily investigate the material herding efficiency to oil, suitable polymer surfactants with […] were tested. Polyethylene glycol (PEG) is a water soluble polymer and easy to couple with hydrophobic chain to form surfactant. The experiments were performed at room temperature. The slick thickness ratio is defined as below: […]
Higher slick thickness ratio implied better herding quality. […] The effectiveness of surfactants at herding oil is directly related to the chemical structure of the PEG derivatives. […] The reason of slick thickness ratio curve of FIG. 8C and FIG. 8D remained flat were assumed to be its internal chemical structure large benzene rings and two side longer carbon chains. The benzene rings and longer carbon chains affected the steric hindrance of materials and largely restricted the hydrophobic side reaction with oil slick. They could not perform herding effect and thus curves in FIG. 8C and FIG. 8D remained flat, and the thickness ratio was close to 1.
More comparisons were tested to study herder efficiency with different commercial surfactants at varying temperatures and salinity. […] In FIG. 9B, the PEG-monolaurate retained high herding ability under 25° C. […]

[3] = system: black beans, red beans, and pinto beans; settings: in vivo
Description: Edible black beans, red beans, and pinto beans were purchased from local supermarket. 12 black beans, 12 red beans, and 9 pinto beans were randomly chosen and set aside in lab atmosphere for 7 days. […] Beans were separated into three plastic petri dishes, into which four black beans, four red beans and three pinto beans each were placed. Three water environments were simulated, and beans were immersed with reference sea water, 0.25 wt % pristine KGM in sea water, and 0.25 wt % modified konjac glucomannan in sea water for 7 days.

Krafft temperature (sudden large increase in conductivity) ([1]; 0.1 mol/L in deionized water): 14.6 °C
Conductivity ([1]; 13 ° C.): 3.07 mS
Conductivity ([1]; 13.2 ° C.): 3.07 mS
Conductivity ([1]; 13.4 ° C.): 3.09 mS
Conductivity ([1]; 13.6 ° C.): 3.1 mS
Conductivity ([1]; 13.8 ° C.): 3.11 mS
Conductivity ([1]; 14 ° C.): 3.11 mS
Conductivity ([1]; 14.2 ° C.): 3.12 mS
Conductivity ([1]; 14.4 ° C.): 3.14 mS
Conductivity ([1]; 14.6 ° C.): 3.25 mS
Conductivity ([1]; 14.8 ° C.): 3.34 mS
Conductivity ([1]; 15 ° C.): 3.56 mS
Conductivity ([1]; 15.2 ° C.): 3.82 mS
Conductivity ([1]; 15.4 ° C.): 4.02 mS
Conductivity ([1]; 15.6 ° C.): 4.21 mS
Conductivity ([1]; 15.8 ° C.): 4.3 mS
Conductivity ([1]; 16 ° C.): 4.35 mS
Conductivity ([1]; 16.2 ° C.): 4.37 mS
Conductivity ([1]; 16.4 ° C.): 4.38 mS
Conductivity ([1]; 16.6 ° C.): 4.34 mS
Conductivity ([1]; 16.8 ° C.): 4.39 mS
Conductivity ([1]; 17 ° C.): 4.39 mS
Conductivity ([1]; 17.2 ° C.): 4.41 mS
Conductivity ([1]; 17.4 ° C.): 4.43 mS
Conductivity ([1]; 17.6 ° C.): 4.44 mS
Conductivity ([1]; 17.8 ° C.): 4.45 mS
Conductivity ([1]; 18 ° C.): 4.49 mS
Conductivity ([1]; 18.6 ° C.): 4.5 mS
Conductivity ([1]; 19 ° C.): 4.51 mS
Conductivity ([1]; 19.4 ° C.): 4.53 mS
Conductivity ([1]; 20 ° C.): 4.57 mS
Conductivity ([1]; 21 ° C.): 4.6 mS
Conductivity ([1]; 22 ° C.): 4.65 mS
Conductivity ([1]; 23 ° C.): 4.67 mS
Conductivity ([1]; 24 ° C.): 4.7 mS
Conductivity ([1]; 25 ° C.): 4.72 mS
Conductivity ([1]; 26 ° C.): 4.75 mS
Conductivity ([1]; 27 ° C.): 4.77 mS
Conductivity ([1]; 28 ° C.): 4.82 mS
Molecule: CCCCCCCCCCCCOS(=O)(=O)[O-].[Na+] [SDS, sodium dodecyl sulfate]

Molecule: Span-20
herding ability [2]: good herding ability

growth (sprouting) of beans [3]: did not affect the growth of the beans
Molecule: konjac glucomannan
